Patent US10658848B2, “Materials for use with aqueous redox flow batteries and related methods and systems” (Massachusetts Institute of Technology, priority 2014, dated 2020)
Marks after values point to notes of the source that are not given here.

Assay: Qualitative cyclic voltammetry of quinoxaline electrolytes
Type: physicochemical
Experimental: Quinoxaline electrochemical behavior was characterized in a number of aqueous electrolytes. […] All electrochemical measurements presented in this paper were performed using a Biologic VSP-300 potentiostat. Glassy carbon electrodes were used as working electrodes in voltammetry experiments and were polished using 0.05 μm alumina suspension before performing a new set of measurements. Solution resistances were measured prior to electrochemical experiments to be 5Ω. Due to small peak currents during CV (less than 1 mA), the maximum estimated iR drop was 5 mV. During qualitative CV experiments, a 75% solution resistance compensation (iR correction) was applied during the experiment to ensure high quality data in untested systems. Quantitative CV techniques were carried with no iR correction as the small potential offset was unlikely to affect experimental results. Additionally, no iR correction was applied during RDV experiments because analyses only considered the limiting RDV current, which is unaffected by ohmic losses. All potentials given herein are presented versus the reversible hydrogen electrode (RHE), unless otherwise stated. Experimental potentials were determined versus a calibrated Ag/AgCl reference electrode and converted to potentials versus RHE using the […] equation and the pH of the solution, measured with a pH meter. All currents utilized in quantitative calculations were background corrected, assuming the background current was composed of non-faradaic, hydrogen evolution reaction and oxygen reduction reaction currents. Qualitative CV experiments were carried out in a three-electrode cell with a 0.3 cm diameter glassy carbon electrode (0.071 cm^2, CH Instruments), a platinum (Pt) wire counter electrode (CH Instruments) and a Ag/AgCl (3 M NaCl, BASi Inc.) reference electrode. […] Three-electrode cells were filled with 10 mL of solution, and the solution was bubbled with argon at a rate of 50 mL/min for 10 min prior to experiments. The argon bubbling tube was then adjusted such that it provided a blanket of argon gas over the surface of the solution. Then, ten cycles of CV were recorded at a scan rate of 100 mV/s. […] A linear slope to the front of an anodic peak (ma) and cathodic peak (mc) was estimated as a rough indicator of the overall reaction rate of either the forward or backward reaction, combining effects of both reaction kinetics and mass-transport. Achieving a slope ratio (ma/mc) of one, indicates an equally fast forward and backward overall reaction rate.

[1] = 0.45M Li2SO4/0.1M LiOH, pH 12.2
[2] = 0.495M K2SO4/0.01M KOH, pH 11.8
[3] = 0.495M Li2SO4/0.01M LiOH, pH 12.0
[4] = 0.5M K2SO4, pH 8.9, considerable degradation
[5] = 0.9M NaC2H3O2/0.1M NaOH, pH 12.7
[6] = 0.99M LiNO3/0.01M LiOH, pH 11.3
[7] = 0.99M NaC2H3O2/0.01M NaOH, pH 11.8
[8] = 0.99M NaHCO3/0.01M NaOH, pH 8.7
[9] = 0.99M NaNO3/0.01M NaOH, pH 11.6
[10] = 1M KNO3, pH 7.2, significant hydrogen evolution reaction current
[11] = 1M LiCl, pH 3.8, considerable degradation
[12] = 1M LiNO3, pH 6.0, significant hydrogen evolution reaction current
[13] = 1M NaHCO3, pH 8.7, considerable degradation

SMILES: c1ccc2nccnc2c1 [quinoxaline]
- E° vs. RHE (0.45M K2SO4/0.1M KOH, pH 12.8): −0.50 V
- ipa, 10/ipa, 2 (0.45M K2SO4/0.1M KOH, pH 12.8): 0.99
- ipc, 10/ipc, 2 (0.45M K2SO4/0.1M KOH, pH 12.8): 0.97
- ma/mc (0.45M K2SO4/0.1M KOH, pH 12.8): 0.51
- ΔEpp, 10/ΔEpp, 2 (0.45M K2SO4/0.1M KOH, pH 12.8): 1.05
- E° vs. RHE [1]: −0.52 V
- ipa, 10/ipa, 2 [1]: 1.00
- ipc, 10/ipc, 2 [1]: 0.99
- ma/mc [1]: 0.46
- ΔEpp, 10/ΔEpp, 2 [1]: 1.02
- E° vs. RHE [2]: −0.51 V
- ipa, 10/ipa, 2 [2]: 0.98
- ipc, 10/ipc, 2 [2]: 0.95
- ma/mc [2]: 0.64
- ΔEpp, 10/ΔEpp, 2 [2]: 1.08
- E° vs. RHE [3]: −0.52 V
- ipa, 10/ipa, 2 [3]: 0.96
- ipc, 10/ipc, 2 [3]: 0.95
- ma/mc [3]: 0.55
- ΔEpp, 10/ΔEpp, 2 [3]: 1.06
- E° vs. RHE [4]: −0.90 ^‡ V
- ipc, 10/ipc, 2 [4]: 0.45 ^‡
- ma/mc [4]: 0.91 ^‡
- ΔEpp, 10/ΔEpp, 2 [4]: 2.16 ^‡
- E° vs. RHE (0.5M Li2SO4, pH 6.6, considerable degradation): −0.81 ^‡ V
- E° vs. RHE (0.9M KCl/0.1M KOH, pH 12.8): −0.45 V
- ipa, 10/ipa, 2 (0.9M KCl/0.1M KOH, pH 12.8): 0.99
- ipc, 10/ipc, 2 (0.9M KCl/0.1M KOH, pH 12.8): 0.96
- ma/mc (0.9M KCl/0.1M KOH, pH 12.8): 0.46
- ΔEpp, 10/ΔEpp, 2 (0.9M KCl/0.1M KOH, pH 12.8): 1.05
- E° vs. RHE (0.9M KNO3/0.1M KOH, pH 12.8): −0.50 V
- ipa, 10/ipa, 2 (0.9M KNO3/0.1M KOH, pH 12.8): 0.99
- ipc, 10/ipc, 2 (0.9M KNO3/0.1M KOH, pH 12.8): 0.98
- ma/mc (0.9M KNO3/0.1M KOH, pH 12.8): 0.53
- ΔEpp, 10/ΔEpp, 2 (0.9M KNO3/0.1M KOH, pH 12.8): 1.03
- E° vs. RHE (0.9M LiCl/0.1M LiOH, pH 12.1): −0.53 V
- ipa, 10/ipa, 2 (0.9M LiCl/0.1M LiOH, pH 12.1): 1.00
- ipc, 10/ipc, 2 (0.9M LiCl/0.1M LiOH, pH 12.1): 0.99
- ma/mc (0.9M LiCl/0.1M LiOH, pH 12.1): 0.51
- ΔEpp, 10/ΔEpp, 2 (0.9M LiCl/0.1M LiOH, pH 12.1): 1.04
- E° vs. RHE (0.9M LiNO3/0.1M LiOH, pH 12.1): −0.48 V
- ipa, 10/ipa, 2 (0.9M LiNO3/0.1M LiOH, pH 12.1): 0.99
- ipc, 10/ipc, 2 (0.9M LiNO3/0.1M LiOH, pH 12.1): 0.95
- ma/mc (0.9M LiNO3/0.1M LiOH, pH 12.1): 0.51
- ΔEpp, 10/ΔEpp, 2 (0.9M LiNO3/0.1M LiOH, pH 12.1): 1.10
- E° vs. RHE [5]: −0.51 V
- ipa, 10/ipa, 2 [5]: 1.00
- ipc, 10/ipc, 2 [5]: 0.97
- ma/mc [5]: 0.46
- ΔEpp, 10/ΔEpp, 2 [5]: 1.04
- E° vs. RHE (0.9M NaHCO3/0.1M NaOH, pH 9.1): −0.53 V
- ipa, 10/ipa, 2 (0.9M NaHCO3/0.1M NaOH, pH 9.1): 0.82
- ipc, 10/ipc, 2 (0.9M NaHCO3/0.1M NaOH, pH 9.1): 0.78
- ma/mc (0.9M NaHCO3/0.1M NaOH, pH 9.1): 1.63
- ΔEpp, 10/ΔEpp, 2 (0.9M NaHCO3/0.1M NaOH, pH 9.1): 1.56
- E° vs. RHE (0.9M NaNO3/0.1M NaOH, pH 12.5): −0.52 V
- ipa, 10/ipa, 2 (0.9M NaNO3/0.1M NaOH, pH 12.5): 0.98
- ipc, 10/ipc, 2 (0.9M NaNO3/0.1M NaOH, pH 12.5): 0.98
- ma/mc (0.9M NaNO3/0.1M NaOH, pH 12.5): 0.50
- ΔEpp, 10/ΔEpp, 2 (0.9M NaNO3/0.1M NaOH, pH 12.5): 1.07
- ip,a (0.99 M KCl/0.01 M KOH, across all cycles): 0.12 mA
- E° vs. RHE (0.99M KCl/0.01M KOH, pH 11.8): −0.48 V
- ipa, 10/ipa, 2 (0.99M KCl/0.01M KOH, pH 11.8): 1.00
- ipc, 10/ipc, 2 (0.99M KCl/0.01M KOH, pH 11.8): 0.97
- ma/mc (0.99M KCl/0.01M KOH, pH 11.8): 0.59
- ΔEpp, 10/ΔEpp, 2 (0.99M KCl/0.01M KOH, pH 11.8): 1.02
- E° vs. RHE (0.99M KNO3/0.01M KOH, pH 11.7): −0.52 V
- ipa, 10/ipa, 2 (0.99M KNO3/0.01M KOH, pH 11.7): 1.00
- ipc, 10/ipc, 2 (0.99M KNO3/0.01M KOH, pH 11.7): 0.97
- ma/mc (0.99M KNO3/0.01M KOH, pH 11.7): 0.64
- ΔEpp, 10/ΔEpp, 2 (0.99M KNO3/0.01M KOH, pH 11.7): 1.01
- E° vs. RHE (0.99M LiCl/0.01M LiOH, pH 11.4): −0.52 V
- ipa, 10/ipa, 2 (0.99M LiCl/0.01M LiOH, pH 11.4): 0.99
- ipc, 10/ipc, 2 (0.99M LiCl/0.01M LiOH, pH 11.4): 0.96
- ma/mc (0.99M LiCl/0.01M LiOH, pH 11.4): 0.63
- ΔEpp, 10/ΔEpp, 2 (0.99M LiCl/0.01M LiOH, pH 11.4): 1.05
- E° vs. RHE [6]: −0.47 V
- ipa, 10/ipa, 2 [6]: 0.98
- ipc, 10/ipc, 2 [6]: 0.95
- ma/mc [6]: 0.67
- ΔEpp, 10/ΔEpp, 2 [6]: 1.08
- E° vs. RHE [7]: −0.52 V
- ipa, 10/ipa, 2 [7]: 1.01
- ipc, 10/ipc, 2 [7]: 0.97
- ma/mc [7]: 0.58
- ΔEpp, 10/ΔEpp, 2 [7]: 1.06
- E° vs. RHE [8]: −0.53 V
- ipa, 10/ipa, 2 [8]: 0.06
- ipc, 10/ipc, 2 [8]: 0.50
- ma/mc [8]: 1.61
- ΔEpp, 10/ΔEpp, 2 [8]: 2.90
- E° vs. RHE [9]: −0.52 V
- ipa, 10/ipa, 2 [9]: 1.00
- ipc, 10/ipc, 2 [9]: 0.96
- ma/mc [9]: 0.61
- ΔEpp, 10/ΔEpp, 2 [9]: 1.04
- ip,a (1 M KCl, cycle 2): 0.11 mA
- ip,a (1 M KCl, cycle 10): 0.06 mA
- E° vs. RHE (1M KCl, pH 5.4): −0.80 V
- ipa, 10/ipa, 2 (1M KCl, pH 5.4): 0.57
- ipc, 10/ipc, 2 (1M KCl, pH 5.4): 0.56
- ma/mc (1M KCl, pH 5.4): 0.75
- ΔEpp, 10/ΔEpp, 2 (1M KCl, pH 5.4): 1.85
- E° vs. RHE [10]: −0.76 ^† V
- ipa, 10/ipa, 2 [10]: 0.91 ^†
- ipc, 10/ipc, 2 [10]: 1.01 ^†
- ma/mc [10]: 1.51 ^†
- ΔEpp, 10/ΔEpp, 2 [10]: 1.04 ^†
- peak separation (1 M KOH, 1 M NaOH, or 1 M LiOH): ~150 mV
- E° vs. RHE (1M KOH, pH 13.7): −0.48 V
- ipa, 10/ipa, 2 (1M KOH, pH 13.7): 0.98
- ipc, 10/ipc, 2 (1M KOH, pH 13.7): 0.97
- ma/mc (1M KOH, pH 13.7): 0.42
- ΔEpp, 10/ΔEpp, 2 (1M KOH, pH 13.7): 1.04
- E° vs. RHE [11]: −0.94 ^‡ V
- ipc, 10/ipc, 2 [11]: 0.08 ^‡
- ma/mc [11]: 0.96 ^‡
- ΔEpp, 10/ΔEpp, 2 [11]: 2.95 ^‡
- E° vs. RHE [12]: −0.75 ^† V
- ipa, 10/ipa, 2 [12]: 0.80 ^†
- ipc, 10/ipc, 2 [12]: 0.91 ^†
- ma/mc [12]: 1.94 ^†
- ΔEpp, 10/ΔEpp, 2 [12]: 1.11 ^†
- E° vs. RHE (1M LiOH, pH 12.7): −0.55 V
- ipa, 10/ipa, 2 (1M LiOH, pH 12.7): 0.98
- ipc, 10/ipc, 2 (1M LiOH, pH 12.7): 0.96
- ma/mc (1M LiOH, pH 12.7): 0.45
- ΔEpp, 10/ΔEpp, 2 (1M LiOH, pH 12.7): 1.00
- E° vs. RHE (1M NaC2H3O2, pH 8.6, two distinct reduction and oxidation peaks): −0.68 * V
- E° vs. RHE [13]: −0.53 ^‡ V
- ma/mc [13]: 1.51 ^‡
- E° vs. RHE (1M NaNO3, pH 6.8): −0.77 V
- ipa, 10/ipa, 2 (1M NaNO3, pH 6.8): 0.12
- ipc, 10/ipc, 2 (1M NaNO3, pH 6.8): 0.46
- ma/mc (1M NaNO3, pH 6.8): 0.82
- ΔEpp, 10/ΔEpp, 2 (1M NaNO3, pH 6.8): 1.78
- E° vs. RHE (1M NaOH, pH 13.8): −0.48 V
- ipa, 10/ipa, 2 (1M NaOH, pH 13.8): 0.99
- ipc, 10/ipc, 2 (1M NaOH, pH 13.8): 0.98
- ma/mc (1M NaOH, pH 13.8): 0.46
- ΔEpp, 10/ΔEpp, 2 (1M NaOH, pH 13.8): 1.01
- peak separation (KCl electrolyte with 0.01 M KOH, cycle 2): 230 mV
- peak separation (KCl electrolyte with 0.1 M KOH, cycle 2): 200 mV
- ratio of charge transferred between the cathodic and anodic scans (all electrolytes with pH≥11.4, within a particular CV cycle): exceeded 0.9
- redox potential E° vs. RHE (cases where quinoxaline exhibited stable performance over multiple CV cycles): ≈ −0.5 V
- redox potential E° vs. RHE (electrolytes where degradation of quinoxaline was observed, not indicators of the actual redox potential): ≤ −0.75 V
- peak separation (sulfate and chloride anions, at 0.01 M OH^−): < 220 mV
- peak separation (sulfate and chloride anions, at 0.1 M OH^−): < 200 mV
